Source: patent publication US20250281413A1, “PHARMACEUTICAL COMPOSITION” (Novartis AG, priority 2021, published 2025)
Values after ≈ are worked out from the molar mass of the structure shown.

Columns and labels:
Format in all cases: physicochemical
[1] = Particle size of wet-media milled suspension by Photon Correlation Spectroscopy (PCS); settings: Example 7
From the text: The following examples illustrate the invention and provide support for the disclosure of the present invention without limiting the scope of the invention. • Analytical Centrifugation (AC), e.g., LUMiSizer, LUM GmbH Germany, SEPView 6.1.2570.2022. Wet dispersion method using purified water solution for dilution of suspension to appropriate attenuation level with about 10 to 70% transmission of first measurement profile. The reported results for X10, X50, X90 are intensity weighted. • Photon Correlation Spectroscopy (PCS), e.g., Zetasizer Nano ZS, Malver Panalytical Ltd., UK, Version 7.3. Wet dispersion method using 0.1 mM NaCl solution (in purified water) for dilution of suspension to appropriate attenuation level with about 2 to 9 attenuator index. The reported results for Xmean are intensity weighted. In particular, the attenuator index is 5. Preferably, the measurement is carried at 25° C. […]

[2] = pH dependent solubility of Compound (A)
[3] = Dissolution rate of capsules filled with granule particles (paddle 50 rpm); settings: pH 3, 50 mg dose in 900 mL
Method: Variant P7 was selected as the optimized granule composition in terms of copovidone and SLS ratio, thus the amount to be sprayed on the inert substrate (carrier particle) allow a drug load of 20%, based on the total weight of the granule particle, in a reasonable processing time. The dissolution performance of the different variant of granule particle compositions was evaluated to ensure the dissolution profile was in a good range. The dissolution rate is measured by conventional method (paddle method according to Pharm. Eur. 2.9.3 “Dissolution Test for Solid Dosage Forms” or US Pharmacopeia <711> “Dissolution” or Japanese Pharmacopiea <6.10> “Dissolution Test), as it can be seen in FIG. 1 and FIG. 2, by adding the granule particles prepared as mentioned in Table 1 into capsules (e.g. hard gelatin capsule). […] Some of the tested capsules comprising the above mentioned granule particles, the disintegration and dispersion of the content was delayed, leading to a delayed dissolution rate (DR) profile at paddle 50 rpm. […]
In order to have a better understanding of the formulation/pH profile, the dissolution rate profiles of the formulations described in Table 2 and Table 3 were measured at pH 2, pH 3, pH 4.5 and pH 6.8. […]

C=CC(=O)N(C)CCOc1c(N)ncnc1-c1cc(F)cc(NC(=O)c2ccc(C3CC3)cc2F)c1C [Compound (A), N-(3-(6-amino-5-(2-(N-methylacrylamido)ethoxy)pyrimidin-4-yl)-5-fluoro-2-methylphenyl)-4-cyclopropyl-2-fluorobenzamide]
particle size of the DS in wet media milled before dilution for spray granulation [1]: 123 nm | Biopharmaceutics classification system Class [2]: Class 2 | solubility ([2]; pH 1.2, simulated gastric fluid): 3000 µg/mL (≈ 5910 µM) | solubility ([2]; pH 2, simulated gastric fluid): 300 µg/mL (≈ 591 µM) | solubility ([2]; pH 3, aqueous buffer): 3 µg/mL (≈ 5.91 µM) | percent of dose dissolved at plateau [3]: 90%
